In ChEMBL document CHEMBL4325868, “Design, synthesis and antitubercular activity of 4-alkoxy-triazoloquinolones able to inhibit the M. tuberculosis DNA gyrase” (Eur J Med Chem, 2019) one finds viability, MIC and IC50 data, which are given here for 22 compounds.

Usually MIC stands for the lowest concentration found to suppress growth. A word on the IC50: it is the concentration at which inhibition is half-maximal.

SMILES strings stand for the structures. In brackets after ≈: the same amount, converted by molar mass. Some results are limits rather than exact numbers.

Data set [1] in a line: Cytotoxicity against African green monkey Vero cells assessed as cell viability at 100 uM after 72 hrs by MTT assay relative to control. Format: cell-based. The settings on record: chlorocebus sabaeus, read-out: Activity. For orientation: Tetrazolium dyes change colour on reduction, which living cells bring about.
The test system of data set [2] is Mycobacterium tuberculosis. The data set can be described thus: Antitubercular activity against Mycobacterium tuberculosis H37Rv after 7 days by resazurin microtiter assay. Type of data set: functional. The settings on record: 168 h. A general note: Resazurin is reduced to fluorescent resorufin, in cell work by metabolically active cells.
Data set [3] concerns Mycobacterium tuberculosis. The data set can be described thus: Antitubercular activity against Mycobacterium tuberculosis isolate 1777 after 7 days by resazurin microtiter assay. Format: functional. The settings on record: isolate 1777, 168 h.
The test system of data set [4] is Mycobacterium tuberculosis. Kind of data set: Antitubercular activity against Mycobacterium tuberculosis isolate 1535 after 7 days by resazurin microtiter assay. Format: functional. Particulars: isolate 1535, 168 h.
A further data set relates to Salmonella typhimurium. The data set can be described thus: Antibacterial activity against Salmonella typhimurium ATCC 14028 after overnight incubation by broth dilution assay. Type of data set: functional, Salmonella enterica subsp. enterica serovar Typhimurium. The settings on record: Salmonella enterica. (In general: Broth dilution looks for growth in wells or tubes with falling amounts of substance.)

The subject of data set [5] is Mycobacterium tuberculosis. Kind of data set: Antitubercular activity against Mycobacterium tuberculosis isolate 1567 after 7 days by resazurin microtiter assay. The settings on record: isolate 1567, 168 h. Format: functional.
Data set [6] has as its system Mycobacterium tuberculosis. Kind of data set: Antitubercular activity against Mycobacterium tuberculosis isolate 1574 after 7 days by resazurin microtiter assay. Type of data set: functional. The settings on record: isolate 1574, 168 h.
For another data set, the system named is Candida tropicalis. Kind of data set: Antifungal activity against Candida tropicalis after overnight incubation by broth dilution assay. Format: functional.
Data set [7] deals with Mycobacterium tuberculosis. Kind of data set: Antitubercular activity against Mycobacterium tuberculosis isolate 231 after 7 days by resazurin microtiter assay. Format: functional. Particulars: isolate 231, 168 h.
Another data set relates to Candida albicans. Kind of data set: Antifungal activity against Candida albicans after overnight incubation by broth dilution assay. Type of data set: functional.
Data set [8] deals with Mycobacterium tuberculosis. Kind of data set: Antitubercular activity against Mycobacterium tuberculosis isolate 147 after 7 days by resazurin microtiter assay. Format: functional. Particulars: isolate 147, 168 h.
Another data set deals with Escherichia coli. Kind of data set: Antibacterial activity against Escherichia coli ATCC 15922 after overnight incubation by broth dilution assay. Format: functional.
In a further data set the test system is Enterococcus faecalis. Kind of data set: Antibacterial activity against Enterococcus faecalis ATCC 2491 after overnight incubation by broth dilution assay. Type of data set: functional.
For data set [9], the target named is DNA gyrase subunit A/DNA gyrase subunit B (Mycobacterium tuberculosis (strain ATCC 25618 / H37Rv), UniProt P9WG45+P9WG47). The data set can be described thus: Inhibition of Mycobacterium tuberculosis DNA gyrase assessed as reduction in supercoiling of relaxed pBR322 DNA substrate after 30 mins by ethidium bromide staining based agarose gel electrophoresis method. Type of data set: protein-complex assay.
DNA gyrase subunit A/DNA gyrase subunit B, sequence (P9WG45 whole entry): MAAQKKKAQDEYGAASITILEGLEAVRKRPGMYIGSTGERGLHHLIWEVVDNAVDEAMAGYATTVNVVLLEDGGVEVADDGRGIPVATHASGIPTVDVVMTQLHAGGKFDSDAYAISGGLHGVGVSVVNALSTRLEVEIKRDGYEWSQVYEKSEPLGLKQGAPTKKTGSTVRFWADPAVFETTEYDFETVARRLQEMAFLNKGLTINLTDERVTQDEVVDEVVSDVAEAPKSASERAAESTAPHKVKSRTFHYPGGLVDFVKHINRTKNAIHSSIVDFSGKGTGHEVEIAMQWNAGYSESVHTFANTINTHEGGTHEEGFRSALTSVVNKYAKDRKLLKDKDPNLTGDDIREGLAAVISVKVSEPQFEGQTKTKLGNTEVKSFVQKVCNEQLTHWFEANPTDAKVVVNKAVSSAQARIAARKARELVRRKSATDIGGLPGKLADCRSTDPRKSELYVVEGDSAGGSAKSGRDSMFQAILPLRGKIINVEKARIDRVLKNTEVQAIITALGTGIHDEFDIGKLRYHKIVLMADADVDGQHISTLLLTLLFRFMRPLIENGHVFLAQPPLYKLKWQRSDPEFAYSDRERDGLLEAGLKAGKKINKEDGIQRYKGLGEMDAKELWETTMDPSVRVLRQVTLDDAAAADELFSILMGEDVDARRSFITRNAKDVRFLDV
DNA gyrase subunit A/DNA gyrase subunit B, sequence (P9WG47 whole entry): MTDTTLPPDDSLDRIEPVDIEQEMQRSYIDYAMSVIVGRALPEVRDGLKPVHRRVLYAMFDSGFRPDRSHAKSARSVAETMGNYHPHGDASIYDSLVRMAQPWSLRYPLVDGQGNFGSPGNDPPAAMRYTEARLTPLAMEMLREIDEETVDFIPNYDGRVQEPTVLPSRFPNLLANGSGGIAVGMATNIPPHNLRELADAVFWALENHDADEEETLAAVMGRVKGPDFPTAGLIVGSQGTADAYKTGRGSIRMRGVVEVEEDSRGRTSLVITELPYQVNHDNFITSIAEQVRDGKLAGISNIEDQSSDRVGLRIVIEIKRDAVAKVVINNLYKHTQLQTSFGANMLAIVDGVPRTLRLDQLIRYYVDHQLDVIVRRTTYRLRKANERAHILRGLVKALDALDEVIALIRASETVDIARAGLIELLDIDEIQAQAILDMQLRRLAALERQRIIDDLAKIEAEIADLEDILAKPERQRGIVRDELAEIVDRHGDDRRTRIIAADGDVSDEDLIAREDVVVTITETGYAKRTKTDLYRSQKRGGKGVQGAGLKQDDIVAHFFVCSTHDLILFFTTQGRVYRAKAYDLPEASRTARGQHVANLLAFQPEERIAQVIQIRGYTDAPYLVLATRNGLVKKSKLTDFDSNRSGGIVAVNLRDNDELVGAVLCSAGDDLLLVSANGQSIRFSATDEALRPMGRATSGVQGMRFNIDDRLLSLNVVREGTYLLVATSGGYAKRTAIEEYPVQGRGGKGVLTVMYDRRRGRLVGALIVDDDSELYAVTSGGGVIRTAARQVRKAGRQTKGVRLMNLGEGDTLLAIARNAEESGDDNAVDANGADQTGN

In another data set the test system is Staphylococcus aureus. The data set can be described thus: Antibacterial activity against Staphylococcus aureus ATCC 2913 after overnight incubation by broth dilution assay. Format: functional.
The test system of data set [10] is Mycobacterium tuberculosis. The data set can be described thus: Antitubercular activity against Mycobacterium tuberculosis isolate 1657 after 7 days by resazurin microtiter assay. Format: functional. The settings on record: isolate 1657, 168 h.

For the compound `COc1cc2c(=O)c(C(=O)O)c[nH]c2c2c1nnn2C`, in data set [1], the viability at 72 h, 100 µM came to 92.9%. Also, in [2], the MIC was above 100 µM.

As for `CCn1cc(C(=O)O)c(=O)c2cc(F)c3c(nnn3C)c21`, the viability at 72 h, 100 µM in data set [1] came out at 95.1%. Further, in data set [2], the minimum inhibitory concentration (MIC) is above 100 µM.

For `COc1cc2c(=O)c(C(=O)O)cn(C)c2c2nn(C)nc12`, in data set [1], the viability at 72 h, 100 µM was 89.5%. It took 27.8 µM (≈ 8.01 µg/mL) to inhibit growth in data set [2] (MIC).

Consider `CCOC(=O)c1cnc2c(cc(OC)c3nnn(C)c32)c1OCC`, for which, in [1], the viability at 72 h, 100 µM was determined as 85.4%. For the same compound, in data set [2], the MIC was above 100 µM.

In the case of `CCSc1cc2c(=O)c(C(=O)O)cn(C)c2c2nnn(C)c12`, in data set [1], the viability at 72 h, 100 µM is 87.7%. Also, the MIC in data set [2] was 50.3 µM (≈ 16 µg/mL).

As to `O=C(O)c1cn(C2CC2)c2cc(N3CCNCC3)c(F)cc2c1=O` [CIPROFLOXACIN], the viability at 72 h, 100 µM in [1] was found to be 95.2%. In data set [2], this compound yielded a minimum inhibitory concentration (MIC) of 1.5 µM (≈ 0.497 µg/mL).

Turning to `CCOc1c(C(=O)O)cnc2c1cc(OC)c1nnn(C)c12`, in [1], the viability at 72 h, 100 µM is 83.6%. Besides, the MIC in data set [2] was above 100 µM.

Turning to `COc1cc2c(=O)c(C(=O)O)cn(C)c2c2nnn(C)c12`, the MIC in data set [3] is 8 µM (≈ 2.31 µg/mL); in [4], 16 µM (≈ 4.61 µg/mL); against Salmonella typhimurium it was above 100 µM; in data set [5], 32 µM (≈ 9.22 µg/mL); in [6], 32 µM (≈ 9.22 µg/mL); with Candida tropicalis, above 100 µM. For the same compound, the minimal inhibitory concentration (MIC) in data set [7] was 4 µM (≈ 1.15 µg/mL); against Candida albicans it was above 100 µM; in data set [8], 8 µM (≈ 2.31 µg/mL); in the data set on Escherichia coli, above 100 µM; in the data set on Enterococcus faecalis, above 100 µM; in the data set on Staphylococcus aureus it was above 100 µM. Besides, the MIC in [10] is 4 µM (≈ 1.15 µg/mL); in [2] it was 6.9 µM (≈ 1.99 µg/mL). Also, in [1], the viability at 72 h, 100 µM stood at 90.4%. Besides, in data set [9], the IC50 was determined as 27.6 µM.

With `CCOc1cc2c(=O)c(C(=O)O)cn(C)c2c2nnn(C)c12`, the viability at 72 h, 100 µM in data set [1] is 94.3%. The minimal inhibitory concentration (MIC) against Salmonella typhimurium, against Candida tropicalis, in the data set on Candida albicans, in the data set on Escherichia coli, against Enterococcus faecalis and against Staphylococcus aureus was above 100 µM in each case. In addition, the MIC in [2] came out at 6.6 µM (≈ 2 µg/mL). The IC50 in [9] amounted to 28.2 µM.

Turning to `CCOc1cc2c(=O)c(C(=O)O)cn(CC)c2c2nnn(C)c12`, the viability at 72 h, 100 µM in data set [1] was 92.1%. This compound registered an MIC in [2] of 25.3 µM (≈ 8 µg/mL).

Take `CCn1cc(C(=O)O)c(=O)c2cc(OC)c3nn(C)nc3c21`: the viability at 72 h, 100 µM in [1] came out at 94.2%. Further, in data set [2], the MIC was above 100 µM.

As to `CCOC(=O)c1cn(CC)c2c(cc(OCC)c3c2nnn3C)c1=O`, the viability at 72 h, 100 µM in data set [1] was determined as 95.1%. The same compound registered an MIC in [2] above 100 µM.

Regarding `Cn1cc(C(=O)O)c(=O)c2cc([N+](=O)[O-])c3c(nnn3C)c21`, in [1], the viability at 72 h, 100 µM turned out to be 88.8%. Also, the MIC in data set [2] was above 100 µM.

Turning to `COc1c(C(=O)O)cnc2c1cc(OC)c1nnn(C)c12`, the viability at 72 h, 100 µM in [1] was found to be 85.7%. The MIC in [2] is above 100 µM.

As for `CCOC(=O)c1cnc2c(cc(OC)c3nnn(C)c32)c1OC`, the viability at 72 h, 100 µM in data set [1] stood at 80.8%. Moreover, the MIC in data set [2] is above 100 µM.

On to `Cn1cc(C(=O)O)c(=O)c2cc(F)c3c(nnn3C)c21`, for which the viability at 72 h, 100 µM in [1] amounted to 81.2%. In addition, the MIC in data set [2] was 57.9 µM (≈ 16 µg/mL).

As for `COc1cc2c(=O)c(C(=O)O)c[nH]c2c2nnn(C)c12`, the viability at 72 h, 100 µM in [1] was 90.2%. The 50% inhibitory concentration (IC50) in data set [9] amounted to 91.3 µM. This compound also showed an MIC in data set [2] above 100 µM.

With `CCOC(=O)c1cn(C)c2c(cc(OC)c3c2nnn3C)c1=O`, the viability at 72 h, 100 µM in [1] turned out to be 92%. Moreover, the MIC in [2] is above 100 µM.

Consider `CCOC(=O)c1cn(CC)c2c(cc(OC)c3nn(C)nc32)c1=O`, for which the viability at 72 h, 100 µM in data set [1] amounted to 79.3%. In addition, the MIC in data set [2] was above 100 µM.

With `CCn1cc(C(=O)O)c(=O)c2cc(OC)c3c(nnn3C)c21`, in [1], the viability at 72 h, 100 µM amounted to 90.1%. The compound further displayed an MIC in data set [2] of 52.9 µM (≈ 16 µg/mL).

Take `CCOC(=O)c1cn(CC)c2c(cc(OC)c3c2nnn3C)c1=O`: the viability at 72 h, 100 µM in [1] came out at 84.4%. Also, the MIC in data set [2] was above 100 µM.

Consider `COC(=O)c1cn(C)c2c(ccc3c2nnn3C)c1=O`, for which, in data set [1], the viability at 72 h, 100 µM is 91.2%. In addition, in data set [2], the MIC was above 100 µM.
